Patent US10231907B2, “Compositions for improving the health and appearance of skin” (Algenist Holdings, Inc., priority 2006, dated 2019)

Columns and labels:
human PMN leukocytes = test: PMN migration (chemotaxis chamber, FMLP); format: cell-based; conditions: 2 ug/ml, mean ± SD
Description: Microalgal polysaccharide materials were tested for their ability to influence the migration of polymorphonucelar (PMN) leukocytes in response to chemotractant substances. Leukocyte migration is essential for leukocyte accumulation at sites of inflammation. During the inflammatory response, leukocytes migrate towards the source of a chemotractant substance in a process called chemotaxis. In vitro methods to study chemotaxis often use a membrane based approach, where a chemoattractant is placed on one side of a membrane and PMN leukocytes are placed on the other. Chemotaxis is then measured by quantifying the number of leukocytes which then migrate through the filter towards the chemotractant substance.
For this study, human PMN leukocytes were isolated via density centrifugation from freshly drawn blood. The PMN cells were loaded with a Calcein AM, a fluorescent dye. […] The chemotaxis chamber was be incubated and at the end of the incubation period the fluorescence of the bottom wells was read and used as an index of PMN migration. […]
Heparinized whole blood (20-30 ml) was collected from a healthy human donor, layered over a density gradient (Histopaque 1077 and Histopaque 1119) and centrifuged at 400 g for 30 min. […] After the incubation, the PMN cells were washed twice with PBS, counted and resuspended in RPMI-FCS at 1-5×10^6 cells/ml. […]

elastase = test: Anti-elastase assay (fibroblast lysate, STANA substrate); format: biochemical, human; conditions: 100 μM
Description: Human dermal fibroblasts were cultured and used as a source of the elastase enzyme. This enzyme was be partially purified from the fibroblasts by lysing the cells in an elastase buffer and retaining the soluble portion of the lysate. Portions of this fibroblast lysate were then be incubated with test materials a synthetic elastase substrate, Suc-(Ala3)-p-Nitroaniline (STANA). Elastase acts upon this substrate to release p-nitroaniline, which is detected with a spectrophotometer by measuring the absorbance at a wavelength of 405 nm. An inhibition of the elastase enzyme is identified by a decrease in the amount of released p-nitroaniline when compared to uninhibited enzyme.
Test material BM was supplied as a powder. 100 mg of BM was combined with either 5 ml of ethanol or 5 ml of ultrapure water in 15 ml centrifuge tubes. […]
After measuring the protein concentration of the lysate, a small sample was obtained and the elastase activity of the lysate was determined at 100%, 50% and 25% concentrations using 2× elastase buffer to make the dilutions. […] After the incubation the well plate was read at 405 nm using a microplate reader. The mean absorbance for each concentration of the lysate was plotted versus its respective concentration. […]

Row | SMILES | Percent of Maximal Migration (human PMN leukocytes) [%] | Percent Inhibition (elastase) [%]
1 | C[C@@H]1[C@H](O)[C@@H](C)/C=C/C=C/C=C/C=C/C=C/C=C/C=C/[C@H](O[C@@H]2O[C@H](C)[C@@H](O)[C@H](N)[C@@H]2O)C[C@@H]2O[C@](O)(C[C@@H](O)C[C@@H](O)[C@H](O)CC[C@@H](O)C[C@@H](O)CC(=O)O[C@H]1C)C[C@H](O)[C@H]2C(=O)O [Amphotericin B] | 9.4 ± 0.6 | –
2 | CC(C)C[C@H](NP(=O)(O)O[C@@H]1O[C@@H](C)[C@H](O)[C@@H](O)[C@H]1O)C(=O)N[C@@H](Cc1c[nH]c2ccccc12)C(=O)O [Phosphoramidon] | – | 94
